Source: ChEMBL document CHEMBL5316303, “[1,2,4]Triazolo[3,4-b]benzothiazole Scaffold as Versatile Nicotinamide Mimic Allowing Nanomolar Inhibition of Different PARP Enzymes” (J Med Chem, 2023)

Experiments:
HEK-293T = assay: Cytotoxicity in […] cells at 10 to 100 uM measured after 24 hrs by WST-1 based colorimetric assay; format: toxicity, cell-based; details: human, dose 10-100 µM
[1] = Stability of the compound in PBS buffer at pH 7.4 measured upto 24 hrs by UV/LC-MS analysis; format: physicochemical; details: pH 7.4, 24 h
[2] = Stability in human plasma measured upto 24 hrs by UV/LC-MS analysis; format: ADME, cell-free
[3] = Stability of the compound in MeOH measured upto 24 hrs by UV/LC-MS analysis; format: physicochemical
[4] = biological target: T1, Protein mono-ADP-ribosyltransferase TIPARP (Homo sapiens, UniProt Q7Z3E1); assay: Inhibition of N-terminal MBP tagged/C-terminal PARP7 (unknown origin) expressed in Escherichia coli in presence of NAD+ by proximity enhanced assay
T1 sequence (Q7Z3E1 whole entry): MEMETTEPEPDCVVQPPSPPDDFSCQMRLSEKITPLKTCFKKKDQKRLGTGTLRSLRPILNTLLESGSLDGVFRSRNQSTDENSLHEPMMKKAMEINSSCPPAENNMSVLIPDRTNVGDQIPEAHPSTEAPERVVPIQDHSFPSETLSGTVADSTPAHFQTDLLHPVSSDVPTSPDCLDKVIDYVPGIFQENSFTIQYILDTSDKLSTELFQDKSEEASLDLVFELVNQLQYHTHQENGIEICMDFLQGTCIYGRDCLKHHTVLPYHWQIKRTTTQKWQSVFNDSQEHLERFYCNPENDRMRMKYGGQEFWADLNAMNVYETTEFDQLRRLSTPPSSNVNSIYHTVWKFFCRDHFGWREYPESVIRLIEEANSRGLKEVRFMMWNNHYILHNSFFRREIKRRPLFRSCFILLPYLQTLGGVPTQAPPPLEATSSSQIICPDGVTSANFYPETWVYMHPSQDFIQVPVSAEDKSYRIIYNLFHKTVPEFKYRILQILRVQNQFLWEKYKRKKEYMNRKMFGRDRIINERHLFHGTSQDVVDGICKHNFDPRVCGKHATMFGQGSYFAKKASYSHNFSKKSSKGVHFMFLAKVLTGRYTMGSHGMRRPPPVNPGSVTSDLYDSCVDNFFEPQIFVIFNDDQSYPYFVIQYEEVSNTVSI

[5] = biological target: Protein mono-ADP-ribosyltransferase PARP6 (Homo sapiens, UniProt Q2NL67); assay: Inhibition of N-terminal 6 His-MBP tagged human PARP6 expressed in Sf21 cells incubated for 18 hrs in presence of NAD+
[6] = biological target: T2, Protein mono-ADP-ribosyltransferase PARP10 (Homo sapiens, UniProt Q53GL7); assay: Inhibition of N-terminal MBP tagged/C-terminal PARP10 (unknown origin) expressed in Escherichia coli in presence of NAD+
T2 sequence (Q53GL7 whole entry): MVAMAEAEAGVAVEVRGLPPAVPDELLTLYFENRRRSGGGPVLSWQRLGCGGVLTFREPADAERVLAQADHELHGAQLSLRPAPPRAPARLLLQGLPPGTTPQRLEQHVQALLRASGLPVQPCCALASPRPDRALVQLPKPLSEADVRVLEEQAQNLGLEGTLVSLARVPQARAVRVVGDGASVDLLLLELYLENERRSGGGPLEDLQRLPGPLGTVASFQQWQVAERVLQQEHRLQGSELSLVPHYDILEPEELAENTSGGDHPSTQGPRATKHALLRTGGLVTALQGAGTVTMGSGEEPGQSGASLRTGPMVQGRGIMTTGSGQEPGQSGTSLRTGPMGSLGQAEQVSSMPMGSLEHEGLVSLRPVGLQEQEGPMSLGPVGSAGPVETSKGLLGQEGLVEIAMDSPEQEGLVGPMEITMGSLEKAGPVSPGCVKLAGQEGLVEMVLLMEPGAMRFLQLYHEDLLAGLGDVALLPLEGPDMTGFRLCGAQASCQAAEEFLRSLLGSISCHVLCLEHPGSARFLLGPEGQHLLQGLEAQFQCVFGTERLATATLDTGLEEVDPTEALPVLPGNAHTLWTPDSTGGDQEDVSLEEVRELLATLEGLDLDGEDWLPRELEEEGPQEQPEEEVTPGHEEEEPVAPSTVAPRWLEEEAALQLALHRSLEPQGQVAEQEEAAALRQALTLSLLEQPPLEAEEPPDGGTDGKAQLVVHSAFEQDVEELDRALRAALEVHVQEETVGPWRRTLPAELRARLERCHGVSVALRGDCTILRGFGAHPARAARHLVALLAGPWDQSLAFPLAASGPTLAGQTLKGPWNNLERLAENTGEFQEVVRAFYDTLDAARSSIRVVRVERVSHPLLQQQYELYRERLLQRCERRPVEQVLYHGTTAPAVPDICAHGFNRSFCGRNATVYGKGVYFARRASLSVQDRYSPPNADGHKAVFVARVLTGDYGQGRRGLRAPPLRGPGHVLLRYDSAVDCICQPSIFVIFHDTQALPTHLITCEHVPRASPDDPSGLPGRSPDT

[7] = biological target: T3, Protein mono-ADP-ribosyltransferase PARP15 (Homo sapiens, UniProt Q460N3); assay: Inhibition of N-terminal MBP tagged/C-terminal PARP15 (unknown origin) expressed in Escherichia coli in presence of NAD+
T3 sequence (Q460N3 whole entry): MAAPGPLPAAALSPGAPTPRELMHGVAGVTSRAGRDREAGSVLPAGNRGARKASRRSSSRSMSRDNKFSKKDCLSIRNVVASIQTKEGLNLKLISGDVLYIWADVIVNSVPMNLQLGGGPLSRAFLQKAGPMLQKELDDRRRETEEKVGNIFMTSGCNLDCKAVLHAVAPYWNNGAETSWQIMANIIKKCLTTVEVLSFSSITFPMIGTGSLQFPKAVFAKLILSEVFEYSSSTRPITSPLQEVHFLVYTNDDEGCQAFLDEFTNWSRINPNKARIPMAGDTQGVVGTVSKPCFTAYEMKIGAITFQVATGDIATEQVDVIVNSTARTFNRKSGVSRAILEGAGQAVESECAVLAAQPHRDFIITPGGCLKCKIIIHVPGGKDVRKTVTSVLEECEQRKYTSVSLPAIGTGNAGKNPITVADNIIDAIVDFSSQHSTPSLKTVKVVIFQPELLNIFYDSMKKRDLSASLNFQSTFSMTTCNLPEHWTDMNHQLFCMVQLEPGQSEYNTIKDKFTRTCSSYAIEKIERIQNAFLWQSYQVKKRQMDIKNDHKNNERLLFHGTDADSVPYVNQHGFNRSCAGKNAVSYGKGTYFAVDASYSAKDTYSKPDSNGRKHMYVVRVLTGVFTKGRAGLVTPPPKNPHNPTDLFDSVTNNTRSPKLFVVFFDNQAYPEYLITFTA

Protein mono-ADP-ribosyltransferase PARP6, sequence (Q2NL67 whole entry): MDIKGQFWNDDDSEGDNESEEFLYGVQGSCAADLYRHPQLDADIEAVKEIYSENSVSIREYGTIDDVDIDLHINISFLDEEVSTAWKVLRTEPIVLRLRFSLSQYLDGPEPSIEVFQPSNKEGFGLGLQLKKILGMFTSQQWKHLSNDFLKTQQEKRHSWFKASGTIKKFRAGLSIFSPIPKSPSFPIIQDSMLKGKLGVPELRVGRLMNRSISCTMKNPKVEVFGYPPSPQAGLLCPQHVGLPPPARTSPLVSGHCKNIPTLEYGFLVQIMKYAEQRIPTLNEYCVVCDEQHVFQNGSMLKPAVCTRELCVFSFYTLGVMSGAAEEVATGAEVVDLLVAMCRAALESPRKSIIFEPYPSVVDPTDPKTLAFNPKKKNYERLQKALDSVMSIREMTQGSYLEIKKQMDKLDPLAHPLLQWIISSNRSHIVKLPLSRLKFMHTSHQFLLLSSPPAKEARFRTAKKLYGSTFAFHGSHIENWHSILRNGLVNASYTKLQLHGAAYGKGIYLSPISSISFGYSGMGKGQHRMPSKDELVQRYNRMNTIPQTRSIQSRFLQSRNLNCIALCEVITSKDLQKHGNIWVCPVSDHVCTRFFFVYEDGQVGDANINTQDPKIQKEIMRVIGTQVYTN

Question: For `Oc1ccc(O)c2c1sc1nncn12`, which Activity (HEK-293T) is on record?
Answer: Its Activity is “Toxic”.

Question: Which results are given for `Oc1ccc2c(c1)sc1nncn12`?
Answer: Stability [1]: > 24 h; Stability [2]: > 24 h; Activity (HEK-293T): Non-Toxic; Stability [3]: > 24 h; IC50 [4]: Not Active; IC50 [5]: Not Active

Question: With `CC(C)c1ccc2c(c1)sc1nncn12` as the compound, how does the Activity (HEK-293T) read?
Answer: The Activity was “Toxic”.

Question: Which results are given for `COc1ccc(OC)c2c1sc1nnc(N)n12`?
Answer: Stability [1]: > 24 h; Stability [2]: > 24 h; Activity (HEK-293T): Non-Toxic; Stability [3]: > 24 h

Question: Which results are given for `COc1ccc(OC)c2c1sc1nnc(NC(C)=O)n12`?
Answer: IC50 [6]: Not Active; IC50 [7]: Not Active

Question: Which IC50 [6] does the source give for `Cc1ccc2c(c1)sc1nnc(NCc3ccc(Cl)cc3)n12` here?
Answer: The IC50 was “Not Active”.

Question: For `COc1ccc(OC)c2c1sc1nnc(S)n12`, which IC50 [6] is on record?
Answer: The IC50 was “Not Active”.

Question: What about the IC50 [7] of the same compound?
Answer: Its IC50 is “Not Active”.

Question: With `Cc1ccc2c(c1)sc1nnc(N)n12` as the compound, how does the Stability [1] read?
Answer: The Stability was > 24 h.

Question: What about the Stability [2] of the same compound?
Answer: Its Stability is > 24 h.

Question: And the Activity (HEK-293T)?
Answer: Its Activity is “Non-Toxic”.

Question: And the Stability [3]?
Answer: The Stability was > 24 h.

Question: With `COc1ccc(OC)c2c1sc1nnc(NC(=O)c3ccc(Cl)cc3)n12` as the compound, how does the IC50 [6] read?
Answer: The IC50 was “Not Active”.

Question: Which IC50 [6] does the source give for `COc1ccc(OC)c2c1sc1nnc(SC)n12` here?
Answer: The IC50 was “Not Active”.

Question: What about the IC50 [7] of the same compound?
Answer: Its IC50 is “Not Active”.

Question: Which results are given for `COc1ccc(OC)c2c1sc1nnc(NC(=O)C(C)(C)C)n12`?
Answer: IC50 [6]: Not Active; IC50 [7]: Not Active
